Experimental data from ChEMBL document CHEMBL5579804, “Synthesis and kinetic evaluation of phosphomimetic inhibitors targeting type B ribose-5-phosphate isomerase from Mycobacterium tuberculosis” (Bioorg Med Chem Lett, 2024).

How the values were obtained:
[1] = Stability in Tris-HCl buffer spiked with alkaline phosphatase incubated for 24 hrs; format: physicochemical
[2] = Stability in Tris-HCl buffer spiked with calf serum incubated for 24 hrs; format: physicochemical, cell-free; conditions: cattle
[3] = Stability in Tris-HCl buffer assessed as compound hydrolysis incubated for 24 hrs; format: physicochemical; conditions: read-out: Drug degradation
[4] = target: T1, ribose-5-phosphate isomerase (Spinacia oleracea, UniProt Q8RU73); assay: Competitive inhibition of Spinacia oleracea RPIA using D-ribose-5-phosphate as substrate
T1 sequence (Q8RU73 whole entry): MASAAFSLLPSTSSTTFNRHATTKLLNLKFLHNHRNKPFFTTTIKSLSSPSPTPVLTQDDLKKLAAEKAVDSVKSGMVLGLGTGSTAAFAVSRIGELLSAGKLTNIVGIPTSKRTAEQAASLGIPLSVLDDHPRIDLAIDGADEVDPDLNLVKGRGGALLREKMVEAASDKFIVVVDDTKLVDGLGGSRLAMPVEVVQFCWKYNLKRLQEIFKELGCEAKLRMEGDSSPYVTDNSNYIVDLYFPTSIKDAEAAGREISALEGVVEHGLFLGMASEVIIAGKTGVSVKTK

[5] = target: T2, Ribose-5-phosphate isomerase B (Escherichia coli (strain K12), UniProt P37351); assay: Competitive inhibition of Escherichia coli RPIB using D-ribose-5-phosphate as substrate
T2 sequence (P37351 whole entry): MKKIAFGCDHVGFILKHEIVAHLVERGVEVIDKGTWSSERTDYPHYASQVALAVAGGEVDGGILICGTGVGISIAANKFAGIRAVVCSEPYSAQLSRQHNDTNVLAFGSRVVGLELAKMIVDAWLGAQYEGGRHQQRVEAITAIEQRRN

[6] = target: T3, Ribose-5-phosphate isomerase B (Mycobacterium tuberculosis, UniProt P9WKD7); assay: Competitive inhibition of Mycobacterium tuberculosis RPIB using D-ribose-5-phosphate as substrate
T3 sequence (P9WKD7 whole entry): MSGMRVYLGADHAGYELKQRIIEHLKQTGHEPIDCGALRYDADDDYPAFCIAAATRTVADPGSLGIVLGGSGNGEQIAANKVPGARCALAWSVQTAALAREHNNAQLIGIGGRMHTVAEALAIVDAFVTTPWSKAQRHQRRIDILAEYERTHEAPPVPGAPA

[7] = target: T1, ribose-5-phosphate isomerase; assay: Competitive inhibition of Spinacia oleracea RPIA assessed as inhibition constant using D-ribose-5-phosphate as substrate by Cheng-Prusoff equation analysis
[8] = target: T3, Ribose-5-phosphate isomerase B; assay: Competitive inhibition of Mycobacterium tuberculosis RPIB assessed as inhibition constant using D-ribose-5-phosphate as substrate by Cheng-Prusoff equation analysis
[9] = Stability in Tris-HCl buffer incubated for 24 hrs; format: physicochemical
[10] = target: T2, Ribose-5-phosphate isomerase B; assay: Competitive inhibition of Escherichia coli RPIB assessed as inhibition constant using D-ribose-5-phosphate as substrate by Cheng-Prusoff equation analysis
[11] = target: T2, Ribose-5-phosphate isomerase B; assay: Competitive inhibition of Escherichia coli RPIB using D-ribose-5-phosphate as substrate by spectrophotometric analysis
[12] = target: T3, Ribose-5-phosphate isomerase B; assay: Competitive inhibition of Mycobacterium tuberculosis RPIB using D-ribose-5-phosphate as substrate by spectrophotometric analysis
[13] = target: T3, Ribose-5-phosphate isomerase B; assay: Competitive inhibition of Mycobacterium tuberculosis RPIB using D-ribose-5-phosphate as substrate assessed as inhibition constant by spectrophotometric analysis

Row | SMILES | Stability [1] | Stability [2] | degraded at 24 h [3] | IC50 [4] | IC50 [5] | IC50 [6] | Ki [7] | Ki [8] | Stability [9] | Ki [10] | IC50 [11] | IC50 [12] | Ki [13]
1 | O=P(O)(O)OC[C@H]1O[C@@H](O)[C@H](O)[C@@H]1O | Unstable | Unstable | 10% |  |  |  |  |  |  |  |  |  | 
2 | CC(C(C(=O)O)C(=O)O)[C@@H](O)[C@@H](O)[C@@H](O)CCP(=O)(O)O (some centres not stated) | Stable | Stable |  | > 1500 µM | 1360 µM | 200 µM | > 750 µM | 80 µM | Stable |  |  |  | 
3 | CC(C(C(=O)O)C(=O)O)[C@@H](O)[C@@H](O)[C@@H](O)CCC(=O)O (some centres not stated) | Stable | Stable |  | > 1500 µM | > 1500 µM | 470 µM | > 750 µM | 290 µM | Stable |  |  |  | 
4 | O=S(=O)(O)OC[C@H]1OC(O)[C@H](O)[C@@H]1O (some centres not stated) | Stable | Unstable |  | 320 µM | 160 µM | 120 µM | 180 µM | 40 µM | Stable | 90 µM |  |  | 
5 | O=S(=O)(O)CC[C@H]1OC(O)[C@H](O)[C@@H]1O (some centres not stated) | Stable | Stable |  | 620 µM | 480 µM | 240 µM | 290 µM | 110 µM | Stable | 170 µM |  |  | 
6 | O=P(O)(O)CC[C@H]1OC(O)[C@H](O)[C@@H]1O (some centres not stated) | Stable | Stable |  | > 3000 µM | 2410 µM | > 3000 µM |  |  | Stable |  |  |  | 
7 | O=C(O)C(C[C@H]1OC(O)[C@H](O)[C@@H]1O)C(=O)O (some centres not stated) | Stable | Stable |  | 980 µM | 1340 µM | 810 µM | 450 µM | 340 µM | Stable | 670 µM |  |  | 
8 | O=C(O)[C@@H](O)[C@@H](O)[C@@H](O)COP(=O)(O)O (single isomer, unassigned) | Unstable | Unstable | 20% | 95 µM | 1400 µM | 21 µM | 38 µM |  |  |  | 1310 µM | 31 µM | 9 µM
